Results from ChEMBL document CHEMBL1201862, “PubChem BioAssay data set” (2004).
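96-well plates; 48 h exposure; 5 concentrations. Endpoints by linear interpolation between flanking doses. Not reached: highest tested concentration assigned. GI50: concentration for 50% inhibition of growth.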 The source made the active and inactive calls. Rule as the data show it: active = GI50 up to about 1.1 µM and inactive = higher.

Experiments:
Assay in all cases: inhibition of tumour cell growth, NCI panel, 48 h
[1] = tested on: DU-145
[2] = tested on: MOLT-4
[3] = tested on: EKVX
[4] = tested on: HOP-62
[5] = tested on: TK-10
[6] = tested on: A498
[7] = tested on: KM12
[8] = tested on: NCI-H23
[9] = tested on: SN12C
[10] = tested on: OVCAR-5
[11] = tested on: CCRF-CEM
[12] = tested on: IGROV-1
[13] = tested on: 786-0
[14] = tested on: UO-31
[15] = tested on: BT-549
[16] = tested on: M14
[17] = tested on: OVCAR-3
[18] = tested on: MDA-N
[19] = tested on: NCI-H460
[20] = tested on: LOX IMVI
[21] = tested on: PC-3
[22] = tested on: HL-60
[23] = tested on: SW-620
[24] = tested on: SK-MEL-5
[25] = tested on: ACHN
[26] = tested on: MDA-MB-435
[27] = tested on: HCT-116
[28] = tested on: RXF 393
[29] = tested on: MDA-MB-231
[30] = tested on: OVCAR-8
[31] = tested on: Malme-3M
[32] = tested on: UACC-257
[33] = tested on: SR
[34] = tested on: SK-MEL-28
[35] = tested on: U-251
[36] = tested on: SNB-19
[37] = tested on: NCI-H226
[38] = tested on: HCT-15
[39] = tested on: SF-268
[40] = tested on: T47D
[41] = tested on: HT-29
[42] = tested on: HOP-92
[43] = tested on: SF-295
[44] = tested on: NCI/ADR-RES
[45] = tested on: Hs-578T
[46] = tested on: RPMI-8226
[47] = tested on: NCI-H522
[48] = tested on: HCC 2998
[49] = tested on: K562
[50] = tested on: A549
[51] = tested on: UACC-62
[52] = tested on: SK-MEL-2

Cc1cc(Cl)nc(NC(=O)CSc2ccc(Cl)cc2)n1
GI50 [1]: > 100 µM (inactive)
GI50 [2]: > 100 µM (inactive)
GI50 [3]: > 100 µM (inactive)
GI50 [4]: 79.1 µM (inactive)
GI50 [5]: > 100 µM (inactive)
GI50 [6]: 72.9 µM (inactive)
GI50 [7]: > 100 µM (inactive)
GI50 [8]: > 100 µM (inactive)
GI50 [9]: > 100 µM (inactive)
GI50 [10]: > 100 µM (inactive)
GI50 [11]: > 100 µM (inactive)
GI50 [12]: > 100 µM (inactive)
GI50 [13]: > 100 µM (inactive)
GI50 [14]: > 100 µM (inactive)
GI50 [15]: > 100 µM (inactive)
GI50 [16]: > 100 µM (inactive)
GI50 [17]: > 100 µM (inactive)
GI50 [18]: > 100 µM (inactive)
GI50 [19]: > 100 µM (inactive)
GI50 [20]: > 100 µM (inactive)
GI50 [21]: > 100 µM (inactive)
GI50 [22]: > 100 µM (inactive)
GI50 [23]: > 100 µM (inactive)
GI50 [24]: > 100 µM (inactive)
GI50 [25]: > 100 µM (inactive)
GI50 [26]: > 100 µM (inactive)
GI50 [27]: > 100 µM (inactive)
GI50 [28]: > 100 µM (inactive)
GI50 [29]: > 100 µM (inactive)
GI50 [30]: > 100 µM (inactive)
GI50 [31]: 64.7 µM (inactive)
GI50 [32]: > 100 µM (inactive)
GI50 [33]: > 100 µM (inactive)
GI50 [34]: > 100 µM (inactive)
GI50 [35]: > 100 µM (inactive)
GI50 [36]: > 100 µM (inactive)
GI50 [37]: 22.1 µM (inactive)
GI50 [38]: > 100 µM
GI50 [39]: > 100 µM (inactive)
GI50 [40]: > 100 µM (inactive)
GI50 [41]: > 100 µM (inactive)
GI50 [42]: > 100 µM (inactive)
GI50 [43]: > 100 µM (inactive)
GI50 [44]: > 100 µM (inactive)
GI50 [45]: 77.6 µM (inactive)
GI50 [46]: 38.6 µM (inactive)
GI50 [47]: 95.7 µM (inactive)
GI50 [48]: > 100 µM (inactive)
GI50 [49]: > 100 µM (inactive)
GI50 [50]: > 100 µM (inactive)
GI50 [51]: > 100 µM (inactive)
GI50 [52]: > 100 µM (inactive)
